From patent publication US6551583B2, “Antibiofouling method and apparatus for optical sensors” (Airak, Inc,, priority 2000, dated 2003) come the findings set out here.

A short description of this experiment: effectiveness of biocides for optrode protection against biofouling. The note with it: ppb concentrations.

Take `N#Cc1c(Cl)c(Cl)c(Cl)c(C#N)c1Cl` [chlorothalonil]: the “biocide effectiveness (optrode protection)” value is “effective even at ppb concentrations”.
